Data published in patent US8129398B2 (priority 2008, dated 2012).

The compounds below were run against T1, HIV-integrase (Human immunodeficiency virus type 1 group M subtype B, UniProt P12497) (assay: HIV-Integrase Inhibition Activity (SPA bead integration assay with P33 labeled target DNA)). Conditions: recombinant integrase, class symbols; read-out: in vitro activity.
T1 construct: Recombinant integrase (0.26 ng) was incubated with the beads
Type: biochemical
Method in brief: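 Biotinylated substrate DNA on streptavidin SPA beads loaded with recombinant integrase (90 min, 37° C), washed, then inhibitor plus 0.1 fmol P33-labeled target DNA added. Reaction stopped with 10 mM EDTA; integration measured as CPM by scintillation, giving IC50 ranks.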

**Q.** Which IC50 does the source give for `COCCN(C)C(=O)C(=O)NC12CCC(CC1)Cn1c2nc(C(=O)NCc2ccc(F)cc2)c(O)c1=O` [Example 100, N′-(2-((4-Fluorobenzyl)carbamoyl)-3-hydroxy-4-oxo-6,7,8,9-tetrahydro-7,10-ethanopyrimido[1,2-a]azepin-10(4H)-yl)-N-(2-methoxyethyl)-N-methylethanediamide] here?
**A.** The IC50 was under 10 nM.

**Q.** `CCN(C)C(=O)C(=O)NC12CCC(CC1)Cn1c2nc(C(=O)NCc2ccc(F)cc2)c(O)c1=O` [Example 101, N-Ethyl-N′-(2-((4-fluorobenzyl)carbamoyl)-3-hydroxy-4-oxo-6,7,8,9-tetrahydro-7,10-ethanopyrimido[1,2-a]azepin-10(4H)-yl)-N-methylethanediamide] was tested. Which IC50 did it give?
**A.** The IC50 was under 10 nM.

**Q.** `O=C(NC12CCC(CC1)Cn1c2nc(C(=O)NCc2ccc(F)cc2)c(O)c1=O)C(=O)N1CCC(F)CC1` [Example 102, N-(4-Fluorobenzyl)-10-(((4-fluoro-1-piperidinyl)(oxo)acetyl)amino)-3-hydroxy-4-oxo-4,6,7,8,9,10-hexahydro-7,10-ethanopyrimido[1,2-a]azepine-2-carboxamide] was tested. Which IC50 did it give?
**A.** Its IC50 is under 10 nM.

**Q.** `O=C(NC12CCC(CC1)Cn1c2nc(C(=O)NCc2ccc(F)cc2)c(O)c1=O)C(=O)N1CC[C@H](F)C1` [Example 103, N-(4-Fluorobenzyl)-10-((((3S)-3-fluoro-1-pyrrolidinyl)(oxo)acetyl)amino)-3-hydroxy-4-oxo-4,6,7,8,9,10-hexahydro-7,10-ethanopyrimido[1,2-a]azepine-2-carboxamide] was tested. Which IC50 did it give?
**A.** Its IC50 is under 10 nM.

**Q.** With `O=C(NC12CCC(CC1)Cn1c2nc(C(=O)NCc2ccc(F)cc2)c(O)c1=O)C(=O)N1CC[C@@H](F)C1` [Example 104, N-(4-Fluorobenzyl)-10-((((3R)-3-fluoro-1-pyrrolidinyl)(oxo)acetyl)amino)-3-hydroxy-4-oxo-4,6,7,8,9,10-hexahydro-7,10-ethanopyrimido[1,2-a]azepine-2-carboxamide] as the compound, how does the IC50 read?
**A.** The IC50 was under 10 nM.

**Q.** For `CC(C)N(C)C(=O)C(=O)NC12CCC(CC1)Cn1c2nc(C(=O)NCc2ccc(F)cc2)c(O)c1=O` [Example 105, N′-(2-((4-Fluorobenzyl)carbamoyl)-3-hydroxy-4-oxo-6,7,8,9-tetrahydro-7,10-ethanopyrimido[1,2-a]azepin-10(4H)-yl)-N-methyl-N-(1-methylethyl)ethanediamide], which IC50 is on record?
**A.** The IC50 was under 10 nM.

**Q.** How did the IC50 turn out when `Cc1cnnn1-c1cc(F)ccc1CNC(=O)c1nc2n(c(=O)c1O)CC1CCC2(NC(=O)C(=O)N(C)C)CC1` [Example 106, N′-(2-((4-Fluoro-2-(5-methyl-1H-1,2,3-triazol-1-yl)benzyl)carbamoyl)-3-hydroxy-4-oxo-6,7,8,9-tetrahydro-7,10-ethanopyrimido[1,2-a]azepin-10(4H)-yl)-N,N-dimethylethanediamide] was run?
**A.** The IC50 was 10 to 100 nM.

**Q.** `CN(C)C(=O)C(=O)NC12CCC(CC1)Cn1c2nc(C(=O)NCc2ccc(F)cc2-c2ncnn2C)c(O)c1=O` [Example 107, N′-(2-((4-Fluoro-2-(1-methyl-1H-1,2,4-triazol-5-yl)benzyl)carbamoyl)-3-hydroxy-4-oxo-6,7,8,9-tetrahydro-7,10-ethanopyrimido[1,2-a]azepin-10(4H)-yl)-N,N-dimethylethanediamide] was tested. Which IC50 did it give?
**A.** Its IC50 is 10 to 100 nM.

**Q.** `Cc1ncnn1-c1cc(F)ccc1CNC(=O)c1nc2n(c(=O)c1O)CC1CCC2(NC(=O)C(=O)N(C)C)CC1` [Example 108, N′-(2-((4-Fluoro-2-(5-methyl-1H-1,2,4-triazol-1-yl)benzyl)carbamoyl)-3-hydroxy-4-oxo-6,7,8,9-tetrahydro-7,10-ethanopyrimido[1,2-a]azepin-10(4H)-yl)-N,N-dimethylethanediamide] was tested. Which IC50 did it give?
**A.** Its IC50 is 10 to 100 nM.

**Q.** With `CN(C)C(=O)C(=O)NC12CCC(CC1)Cn1c2nc(C(=O)NCc2ccc(F)cc2-c2nncn2C)c(O)c1=O` [Example 109, N′-(2-((4-Fluoro-2-(4-methyl-4H-1,2,4-triazol-3-yl)benzyl)carbamoyl)-3-hydroxy-4-oxo-6,7,8,9-tetrahydro-7,10-ethanopyrimido[1,2-a]azepin-10(4H)-yl)-N,N-dimethylethanediamide] as the compound, how does the IC50 read?
**A.** The IC50 was 10 to 100 nM.

**Q.** Which IC50 does the source give for `CN(C)C(=O)C(=O)NC12CCC(CC1)Cn1c2nc(C(=O)NCc2ccc(F)c(F)c2)c(O)c1=O` [Example 111, N′-(2-((3,4-Difluorobenzyl)carbamoyl)-3-hydroxy-4-oxo-6,7,8,9-tetrahydro-7,10-ethanopyrimido[1,2-a]azepin-10(4H)-yl)-N,N-dimethylethanediamide] here?
**A.** Its IC50 is under 10 nM.

**Q.** For `CN(C)C(=O)C(=O)NC12CCC(CC1)Cn1c2nc(C(=O)NCc2ccc(F)c(Cl)c2)c(O)c1=O` [Example 112, N′-(2-((3-Chloro-4-fluorobenzyl)carbamoyl)-3-hydroxy-4-oxo-6,7,8,9-tetrahydro-7,10-ethanopyrimido[1,2-a]azepin-10(4H)-yl)-N,N-dimethylethanediamide], which IC50 is on record?
**A.** Its IC50 is under 10 nM.

**Q.** `Cc1cc(CNC(=O)c2nc3n(c(=O)c2O)CC2CCC3(NC(=O)C(=O)N(C)C)CC2)ccc1F` [Example 113, N′-(2-((4-Fluoro-3-methylbenzyl)carbamoyl)-3-hydroxy-4-oxo-6,7,8,9-tetrahydro-7,10-ethanopyrimido[1,2-a]azepin-10(4H)-yl)-N,N-dimethylethanediamide] was tested. Which IC50 did it give?
**A.** Its IC50 is under 10 nM.

**Q.** For `CN(C)C(=O)C(=O)NC12CCC(CC1)Cn1c2nc(C(=O)NCc2ccc(F)cc2F)c(O)c1=O` [Example 114, N′-(2-((2,4-Difluorobenzyl)carbamoyl)-3-hydroxy-4-oxo-6,7,8,9-tetrahydro-7,10-ethanopyrimido[1,2-a]azepin-10(4H)-yl)-N,N-dimethylethanediamide], which IC50 is on record?
**A.** The IC50 was under 10 nM.

**Q.** `CN(C)C(=O)C(=O)NC12CCC(CC1)Cn1c2nc(C(=O)NCc2ccc(F)c(Br)c2)c(O)c1=O` [Example 115, N′-(2-((3-Bromo-4-fluorobenzyl)carbamoyl)-3-hydroxy-4-oxo-6,7,8,9-tetrahydro-7,10-ethanopyrimido[1,2-a]azepin-10(4H)-yl)-N,N-dimethylethanediamide] was tested. Which IC50 did it give?
**A.** The IC50 was under 10 nM.

**Q.** Which IC50 does the source give for `COc1cc(F)ccc1CNC(=O)c1nc2n(c(=O)c1O)CC1CCC2(NC(=O)C(=O)N(C)C)CC1` [Example 116, N′-(2-((4-Fluoro-2-methoxybenzyl)carbamoyl)-3-hydroxy-4-oxo-6,7,8,9-tetrahydro-7,10-ethanopyrimido[1,2-a]azepin-10(4H)-yl)-N,N-dimethylethanediamide] here?
**A.** Its IC50 is under 10 nM.

**Q.** For `CN(C)C(=O)C(=O)NC12CCC(CC1)Cn1c2nc(C(=O)NCc2ccc(F)cc2S(C)(=O)=O)c(O)c1=O` [Example 117, N′-(2-((4-Fluoro-2-(methylsulfonyl)benzyl)carbamoyl)-3-hydroxy-4-oxo-6,7,8,9-tetrahydro-7,10-ethanopyrimido[1,2-a]azepin-10(4H)-yl)-N,N-dimethylethanediamide], which IC50 is on record?
**A.** The IC50 was 10 to 100 nM.

**Q.** With `CN(C)C(=O)C(=O)NC12CCC(CC1)Cn1c2nc(C(=O)NCc2ccc(F)cc2Cl)c(O)c1=O` [Example 118, N′-(2-((2-Chloro-4-fluorobenzyl)carbamoyl)-3-hydroxy-4-oxo-6,7,8,9-tetrahydro-7,10-ethanopyrimido[1,2-a]azepin-10(4H)-yl)-N,N-dimethylethanediamide] as the compound, how does the IC50 read?
**A.** Its IC50 is under 10 nM.

**Q.** With `CN(C)C(=O)C(=O)NC12CCC(CC1)Cn1c2nc(C(=O)NCc2ccc(F)c(C(F)(F)F)c2)c(O)c1=O` [Example 119, N′-(2-((4-Fluoro-3-(trifluoromethyl)benzyl)carbamoyl)-3-hydroxy-4-oxo-6,7,8,9-tetrahydro-7,10-ethanopyrimido[1,2-a]azepin-10(4H)-yl)-N,N-dimethylethanediamide] as the compound, how does the IC50 read?
**A.** The IC50 was under 10 nM.

**Q.** How did the IC50 turn out when `Cc1cc(F)ccc1CNC(=O)c1nc2n(c(=O)c1O)CC1CCC2(NC(=O)C(=O)N(C)C)CC1` [Example 120, N′-(2-((4-Fluoro-2-methylbenzyl)carbamoyl)-3-hydroxy-4-oxo-6,7,8,9-tetrahydro-7,10-ethanopyrimido[1,2-a]azepin-10(4H)-yl)-N,N-dimethylethanediamide] was run?
**A.** The IC50 was under 10 nM.

**Q.** For `CN(C)C(=O)C(=O)NC12CCC(CC1)Cn1c2nc(C(=O)NCc2ccc(F)cc2C(F)(F)F)c(O)c1=O` [Example 121, N′-(2-((4-Fluoro-2-(trifluoromethyl)benzyl)carbamoyl)-3-hydroxy-4-oxo-6,7,8,9-tetrahydro-7,10-ethanopyrimido[1,2-a]azepin-10(4H)-yl)-N,N-dimethylethanediamide], which IC50 is on record?
**A.** Its IC50 is under 10 nM.

**Q.** Which IC50 does the source give for `CN(C)C(=O)C(=O)NC12CCC(CC1)Cn1c2nc(C(=O)NCc2ccc(F)cc2CO)c(O)c1=O` [Example 122, N′-(2-((4-Fluoro-2-(hydroxymethyl)benzyl)carbamoyl)-3-hydroxy-4-oxo-6,7,8,9-tetrahydro-7,10-ethanopyrimido[1,2-a]azepin-10(4H)-yl)-N,N-dimethylethanediamide] here?
**A.** Its IC50 is under 10 nM.

**Q.** `CN(C)C(=O)C(=O)NC12CCC(CC1)Cn1c2nc(C(=O)NCc2ncc(F)cc2F)c(O)c1=O` [Example 123, N′-(2-(((3,5-Difluoro-2-pyridinyl)methyl)carbamoyl)-3-hydroxy-4-oxo-6,7,8,9-tetrahydro-7,10-ethanopyrimido[1,2-a]azepin-10(4H)-yl)-N,N-dimethylethanediamide] was tested. Which IC50 did it give?
**A.** The IC50 was 10 to 100 nM.

**Q.** `CN(C)C(=O)C(=O)NC12CCC(CC1)Cn1c2nc(C(=O)NCc2ccc(F)c(C(F)F)c2)c(O)c1=O` [Example 124, N′-(2-((3-(Difluoromethyl)-4-fluorobenzyl)carbamoyl)-3-hydroxy-4-oxo-6,7,8,9-tetrahydro-7,10-ethanopyrimido[1,2-a]azepin-10(4H)-yl)-N,N-dimethylethanediamide] was tested. Which IC50 did it give?
**A.** The IC50 was under 10 nM.

**Q.** `CN(C)C(=O)C(=O)NC12CCC(CC1)Cn1c2nc(C(=O)NCc2cccc(-n3cncn3)c2)c(O)c1=O` [Example 125, N′-(3-Hydroxy-4-oxo-2-((3-(1H-1,2,4-triazol-1-yl)benzyl)carbamoyl)-6,7,8,9-tetrahydro-7,10-ethanopyrimido[1,2-a]azepin-10(4H)-yl)-N,N-dimethylethanediamide] was tested. Which IC50 did it give?
**A.** Its IC50 is under 10 nM.

**Q.** `CN(C)C(=O)C(=O)NC12CCC(CC1)Cn1c2nc(C(=O)NCc2cccc(-n3cccc3)c2)c(O)c1=O` [Example 126, N′-(3-Hydroxy-4-oxo-2-((3-(1H-pyrrol-1-yl)benzyl)carbamoyl)-6,7,8,9-tetrahydro-7,10-ethanopyrimido[1,2-a]azepin-10(4H)-yl)-N,N-dimethylethanediamide] was tested. Which IC50 did it give?
**A.** The IC50 was under 10 nM.
